According to article PMC12311952, “Mechanism of SC targeting RhoA regulation and its potential value in gastric cancer therapy” (Biochemistry and Biophysics Reports, 2025):

Target: RhoA (Homo sapiens, UniProt P61586)
Test: SPR (Biacore T200, RhoA immobilized on CM5 chip, […] Langmuir fit)
Format: binding

RhoA, sequence (P61586 1-190): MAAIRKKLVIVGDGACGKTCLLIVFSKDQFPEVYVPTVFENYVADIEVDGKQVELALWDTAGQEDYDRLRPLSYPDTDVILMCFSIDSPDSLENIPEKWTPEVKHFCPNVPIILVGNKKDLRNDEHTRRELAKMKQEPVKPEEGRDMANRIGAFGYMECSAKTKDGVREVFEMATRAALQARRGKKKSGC

Kd: 1590 nM
Structure (SMILES): O=C(/C=C/CCc1ccc(O)c(O)c1)CCCCc1ccc(O)c(O)c1 [compound 5, (E)-1,9-bis(3,4-dihydroxyphenyl)non-3-en-5-one]
